{"source": "patent US20250367329A1", "about": "“GENE THERAPY FOR TREATING MITOCHONDRIAL STRESS” (YISSUM RESEARCH DEVELOPMENT COMPANY OF THE HEBREW …, priority 2023, published 2025)", "test_system": "E6/E7LOW human hepatocytes", "assay": "Puromycin toxicity curves, LIVE/DEAD assay", "assay_type": "cell-based", "details": "653 (female) genotype", "protocol": "E6/E7LOW human hepatocytes puromycin toxicity curves: Puromycin (13884, Cayman chemical) was two-fold serially diluted from 10 μg/ml to 0.3 μg/ml in proliferation medium and applied to E6/E7LOW human hepatocytes growing in 96-well plate format. The cells were monitored and imaged daily and on the 3rd day post exposure were analyzed with a LIVE/DEAD assay (L3224, ThermoFischer). The puromycin concentration killing practically all cells in ˜3 days was defined as 2.5 μg/ml for the 653 (female) genotype and 5 µg/ml for the 422 (male) genotype cells."}
{"smiles": "COc1ccc(C[C@H](N)C(=O)N[C@H]2[C@@H](O)[C@H](n3cnc4c(N(C)C)ncnc43)O[C@@H]2CO)cc1", "note": "[Puromycin]", "values": [{"measurement": "puromycin concentration killing practically all cells in ˜3 days", "value": 2.5, "unit": "µg/mL"}]}
